Data published in patent US5885987A, “Phenylene derivatives” (Kowa Co., Ltd., priority 1996, dated 1999).

How the values were obtained:
histamine (H1) = assay: Antihistaminic (anti-H1) action in vivo, Evans Blue transudation in back skin after intracutaneous histamine; set-up: species or system male Hartley guinea pig; conditions: orally 10 mg/kg, one hour before; histamine 0.3 μg/ml, 0.1 ml intracutaneously
Procedure: (§1) Antihistaminic Action and Anti-LTD4 Action (In vivo Tests)
(§2) After the hair on the back of a male Hartley guinea pig was cut off, a test compound was orally administered at 10 mg/kg. One hour later, 5% Evans Blue solution was intravenously administered at 1 ml/kg and immediately after that, a 0.3 μg/ml solution of histamine and a 0.5 μg/ml solution of leukotriene D4 were intracutaneously administered each in an amount of 0.1 ml to the back. Thirty minutes later, the guinea pig was sacrificed under exsanguination, the skin was cut off, and the transudated color was quantitated by extraction. To a control, 0.5% CMC (carboxylmethylcellulose) was orally administered and the subsequent procedures were repeated likewise. From the difference in the amount of the transudated color between the control and the group administered with the test compound, an inhibition rate was calculated.

LTD4 receptor = target: T1, LTD4 receptor (Cavia porcellus, UniProt Q2NNR5); assay: LTD4 receptor binding inhibition test ([^3 H]leukotriene D4, guinea pig pulmomembranous protein); conditions: for Kd: read-out: LTD4 receptor, dissociation constant KD
T1 construct: guinea pig pulmomembranous protein; from tissue; host or cells: guinea pig lung membranes
T1 sequence (Q2NNR5 1-340): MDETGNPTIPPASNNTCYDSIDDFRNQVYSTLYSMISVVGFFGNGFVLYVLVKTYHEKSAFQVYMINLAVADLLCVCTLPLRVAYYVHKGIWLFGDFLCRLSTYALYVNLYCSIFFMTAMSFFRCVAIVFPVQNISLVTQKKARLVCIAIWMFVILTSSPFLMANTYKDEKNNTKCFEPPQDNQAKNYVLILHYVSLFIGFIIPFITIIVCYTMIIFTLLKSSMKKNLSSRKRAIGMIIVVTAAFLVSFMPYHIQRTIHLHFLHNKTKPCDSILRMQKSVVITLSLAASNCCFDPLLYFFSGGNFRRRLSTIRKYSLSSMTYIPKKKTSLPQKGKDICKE
Outline: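 Filtration binding with [3H]LTD4 on guinea pig lung membranes; reaction stopped with ice-cold Tris-HCl/NaCl buffer (10 mM/100 mM, pH 7.5), bound radioactivity by scintillation counting. Nonspecific binding defined with 2 μM leukotriene D4. IC50 from dose-response, converted to dissociation constant by Cheng-Prusoff.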

leukotriene D4 = assay: Anti-LTD4 action in vivo, Evans Blue transudation in back skin after intracutaneous leukotriene D4; set-up: species or system male Hartley guinea pig; conditions: Cavia porcellus, po, 1 h; orally 10 mg/kg, one hour before; leukotriene D4 0.5 μg/ml, 0.1 ml intracutaneously; read-out: Anti-LTD4 action (%), inhibition rate
Procedure: as §1, §2

H1 receptor = target: T2, H1 receptor (Cavia porcellus, UniProt P31389); assay: H1 receptor binding inhibition test ([^3 H]mepyramin, guinea pig cerebromembranous protein); conditions: for inhibition at 100 µM: a: 100 μM
T2 construct: guinea pig cerebromembranous protein; from tissue; host or cells: guinea pig cerebral (brain) membranes
Outline: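 [³H]Mepyramine binding to guinea pig brain membranes was stopped with ice-cold phosphate buffer and filtered, and bound radioactivity was measured by liquid scintillation. Nonspecific binding was defined with 10^-4 M R(-)dimethindene. IC50 came from concentration-response data and was converted to a dissociation constant by Cheng-Prusoff.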

[1] = target: T3, isolated guinea pig ileum (histamine) (Cavia porcellus, UniProt P31389); assay: Antihistaminic action (in vitro), inhibition of histamine-induced contraction of isolated ileum; format: cell-based; conditions: for inhibition at 10 µM: 10^-5 M, 30 minutes incubation, 37° C., read-out: Antihistaminic (%), contraction inhibition rate; for pD'2 (antihistaminic action): isolated guinea pig ileum, histamine, 30 min
T3 construct: An isolated guinea pig ileum was cut into about 2 cm lengths; from tissue; host or cells: isolated guinea pig ileum
Procedure: (§3) Antihistaminic Action and Anti-LTD4 Action (In vitro Tests)
(§4) An isolated guinea pig ileum was cut into about 2 cm lengths. Each ileum piece was suspended in a 20-ml container filled with the Krebs buffer. An isotonic contractive response by histamine or leukotriene D4 was recorded on a recorder. The Krebs buffer was controlled at 37° C., through which a mixed gas (95%O2 -5%CO2) was bubbled. First, histamine or leukotriene D4 was added to an organ bath to measure its dose-response. After the ileum piece was washed several times with the buffer, a test compound (will be identified by its example number; this will apply likewise hereinafter) of a predetermined specific concentration was added. Subsequent to incubation for 30 minutes, the dose-response of histamine or leukotriene D4 was measured again. Incidentally, in Table 7, the values (%) indicate contraction inhibition rate at 10^-5 M, while the values in parentheses show pD'2 values in the case of antihistaminic action and IC50 values in the case of anti-LTD4 action.

[2] = test system: isolated guinea pig ileum (leukotriene D4); assay: Anti-LTD4 action (in vitro), inhibition of leukotriene D4-induced contraction of isolated ileum; format: cell-based; conditions: Cavia porcellus; for inhibition at 10 µM: 0.5 h, 10^-5 M, 30 minutes incubation, 37° C., read-out: Anti-LTD4 action (%), contraction inhibition rate; for IC50: isolated guinea pig ileum, leukotriene D4
Procedure: as §3, §4

cortical edema = conditions: intravenous administration after occurrence of ischemia; cited from earlier work
[3] = read-out: H1 receptor (%), inhibition rate

T3 sequence (P31389 whole entry): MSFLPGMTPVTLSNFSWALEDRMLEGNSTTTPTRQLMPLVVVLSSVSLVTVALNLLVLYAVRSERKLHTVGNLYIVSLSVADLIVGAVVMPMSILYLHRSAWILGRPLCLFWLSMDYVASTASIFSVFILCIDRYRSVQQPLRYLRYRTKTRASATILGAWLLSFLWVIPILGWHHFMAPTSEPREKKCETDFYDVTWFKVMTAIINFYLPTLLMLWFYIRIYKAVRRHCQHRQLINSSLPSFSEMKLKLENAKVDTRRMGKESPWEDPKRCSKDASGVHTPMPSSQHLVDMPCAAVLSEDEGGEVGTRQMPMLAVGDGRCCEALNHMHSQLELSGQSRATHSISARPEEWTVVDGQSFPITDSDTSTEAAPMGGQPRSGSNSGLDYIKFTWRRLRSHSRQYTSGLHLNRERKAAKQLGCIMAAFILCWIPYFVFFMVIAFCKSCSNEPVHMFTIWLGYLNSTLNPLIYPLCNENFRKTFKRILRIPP
T2 sequence (P31389 whole entry): as above

Compound | Anti-H1 action (%), inhibition rate (histamine (H1)) [%] | inhibition at 10 µM (LTD4 receptor; b: 10 μM, read-out: LTD4 receptor (%), inhibition rate) [%] | inhibition in vivo at 10 mg/kg (leukotriene D4) [%] | inhibition at 100 µM (H1 receptor; [3]) [%] | Kd (LTD4 receptor) [nM] | inhibition at 10 µM [1] [%] | pD'2 (antihistaminic action) [1] | inhibition at 10 µM [2] [%] | IC50 [2] [nM] | increase and aggravation of cortical edema (cortical edema) | Kd (H1 receptor; read-out: H1 receptor, dissociation constant KD) [nM] | inhibition at 10 µM (H1 receptor; b: 10 μM, read-out: H1 receptor (%), inhibition rate) [%]
CC1(C)C(=O)Nc2cc(OCc3cccc(OCc4ccc5ccccc5n4)c3)ccc21 [Example 15] | 17 | 37 | 37 | 36 |  |  |  |  |  |  |  | 
CC1(C)C(=O)Nc2c(OCc3cccc(OCc4ccc5ccccc5n4)c3)cccc21 [Example 17, 3,3-Dimethyl-7-[3-(2-quinolinylmethoxy)benzyloxy]-2,3-dihydro-1H-indol-2-one] | 19 |  | 21 | 40 | 202 | 100 | 5.35 | 96 | 1500 |  |  | 
O=C1CSc2cc(OCc3cccc(OCc4ccc5ccccc5n4)c3)ccc2N1 [Example 10, 7-[3-(2-Quinolinylmethoxy)benzyloxy]-3,4-dihydro-2H-1,4-benzothiazin-3-one] | 36 |  | 32 | 50 | 12.5 |  |  |  |  |  |  | 
CCCc1c(OCC(O)COc2ccc3c(=O)cc(C(=O)O)oc3c2CCC)ccc(C(C)=O)c1O (stereo not shown) [FPL55712] |  |  |  |  |  |  |  |  |  | significantly inhibited |  | 
O=C1CSc2cc(OCc3cccc(OCc4ncc5ccccc5n4)c3)ccc2N1 [Example 33, 7[3-(2-quinazolinylmethoxyl)benzyloxy]-3,4-dihydro-2H-1,4-benzothiazin-3-one] |  |  | 40 | 46 | 9.7 | 65 | 5.25 | 100 | 130 |  |  | 
O=C1CCc2ccc(OCc3ccc(OCc4ncc5ccccc5n4)cc3)cc2N1 [Example 35, 7-[4-(2-quinazolinylmethoxy)benzyloxy]-1,2,3,4-tetrahydroquinolin-2-one] |  |  | 11 |  | 209 | 16 |  | 87 | 1700 |  | 87900 | 
O=C1CCc2cc(OCc3cccc(OCc4ccc5ccccc5n4)c3)ccc2N1 [Example 6] |  |  | 12 |  | 81.4 | 37 |  | 98 | 460 |  |  | 18
CC1(C)C(=O)Nc2c(OCc3ccc(OCc4ccc5ccccc5n4)cc3)cccc21 [Example 30, 3,3-Dimethyl-7-[4-(2-quinolinylmethoxy)benzyloxy]-2,3-dihydro-1H-indol-2-one] | 40 |  | 44 | 32 | 200 |  |  |  |  |  |  | 
